Measured values from patent US7247615B2, “Peptide agonists of prostate-specific antigen and uses therefor” (priority 2001, dated 2007).
Several values for one entry are separate records, joined by “and”; a condition that tells them apart may be missing. Identical values can stand only once.

Legend:
[1] = system: T-PSA-3 cells; assay type: cell-based, human
[2] = system: HLA-A2/K^b transgenic mice; experiment: Immunization of HLA-A2.1/Kb transgenic mice with peptide-pulsed DCs, IFN-γ production by T cells; assay type: in vivo, mouse; settings: 24 h
From the text: Transgenic Mice. HLA-A2.1/K^b transgenic mice were kindly provided by Dr. L. Sherman (Scripps Laboratories, San Diego, Calif.). Transgenic mice express the product of the HLA-A2.1/Kb chimeric gene in which the alpha-3 domain of the heavy chain is replaced by mouse H-2/K^b domain, but the HLA-A2.1 alpha-1 and alpha-2 domains are unaltered (A. Vitiello et al., 1991, J. Exp. Med. 173:1007–1015; V. H. Engelhard et al., 1991, J. Immunol. 46:1226–1232).
In Vivo Immunization and Murine T cell Cultures. Three groups of HLA-A2.1/K^b transgenic mice (three mice per group) were immunized s.c. (subcutaneously) in the base of the tail with PSA-3 peptide-pulsed HLA-A2.1/K^b DC, PSA-3A peptide-pulsed DCs from HLA-A2.1/K^b transgenic mice, or DCs only. Peptides were used at a concentration of 50 μg/ml and DCs were used at 1×10^6 cell/mouse/injection. A total of three injections were given to each animal, 2 weeks apart. Mice injected with DCs only were used as controls. Mice were sacrificed 7 days after the last injection, and spleen cells were restimulated in vitro with 25 μg/ml of PSA-3 or PSA3A peptide with irradiated syngeneic spleen cell for 6 days. The cytokine production of these bulk cultures was tested. Peptide-pulsed Jurkat A2 (JA2 K^b) cells were used as stimulator cells. Jurkat 0201 K^b cells are stable transfectants of the human T cell leukemia line, Jurkat, which express the product of HLA-A0201K^b climeric gene (L. A. Sherman et al., 1992, Science 258:815–818).
The HLA-A2/K^b transgenic mouse has been previously reported to aid in the determination of the immunogenicity of HLA-A2 peptides for humans. This in vivo system was thus employed to further analyze and compare the immunogenicity of the PSA-3A peptide with that of the native PSA-3 peptide. DCs from the HLA-A2/K^b transgenic mice were pulsed with either the PSA-3 or the PSA-3A peptide and used to vaccinate HLA-A2b mice. DCs alone (no peptide) were also used as a control vaccine. After three vaccinations at 2-week intervals, T cells were isolated from splenocytes obtained 2 weeks after the last vaccination. The T cells were then incubated with Jurkat A2/K^b cells pulsed with the PSA-3 peptide, the PSA-3A peptide, or no peptide, and production of INF-γ was measured from supernatants after 24 h.

[3] = system: DCs; experiment: IL-12 production by peptide-pulsed DCs in the presence of T cells; assay type: cell-based, human
Procedure: It has been previously shown that the activation of T cells by peptidepulsed DCs is related to the level of IL-12 production by the DCs. Studies were therefore conducted to determine the levels of IL-12 production by DCs pulsed with PSA-3 and PSA-3A peptides in the presence of T cells. […] When DCs pulsed with the PSA3A peptide were incubated with both T cell lines, the DCs incubated with the T-PSA-3A line again produced higher levels of IL-12 than those peptide-pulsed DCs incubated with the T cell line T-PSA-3 (Table 3).

[4] = system: V8T cells; assay type: cell-based, human
[5] = target: T1, HLA-A2 (Homo sapiens, UniProt P04439, D140Y/D185E/D98H/E176V/E277Q/G131W/G231S/I119V/I121R/I166T/I218V/L300P/L318F/N151K/N90K/P208A/P217A/Q86G/Q94H/R138H/R169H/T345S); experiment: Stability of peptide-HLA-A2 complex on T2A2 cells (brefeldin A); assay type: binding; settings: 50 μg/ml overnight, 8-h observation period, FIG. 2
T1 construct: endogenous in cells; host or cells: T2A2 / 174CEM-T2 (T2) transport deletion mutant cell line
Procedure: FIG. 2. Comparison of the stability of the complex of the PSA-3 or PSA-3A peptide with HLA-A2. T2A2 cells were incubated with PSA-3 (open squares) or PSA-3A (closed squares) peptide at a concentration of 50 μg/ml overnight and then washed free of unbound peptide and incubated with brefeldin A to block delivery of new class I molecules to cell surface. At indicated times, cells were stained for the presence of surface peptide-HLA-A2 complexes. Results are expressed in relative % binding as compared to 100% binding at time zero.
Studies were then undertaken to examine the stability of the peptideMHC complex for peptides PSA-3 and PSA-3A. Peptides were incubated with T2A2 cells overnight, washed free of unbound peptide and incubated with brefeldin-A to block delivery of new class I molecules to the cell surface. At various time points, cells were analyzed for the presence of peptide-HLA-A2 complexes. […] Thus, both the ability of the peptide to bind MHC (FIGS. 1A–1B) and the stability (FIG. 2), i.e., avidity of the peptide-MHC complex, are greater for the PSA-3A peptide than the native PSA-3 peptide.

Question: Which results are given for VLSNDVCAQV (SEQ ID NO:3) [PSA-3A]?
Answer: Production of IFN-γ by None (no T cells) [1]: <13.0 pg/mL; Production of IFN-γ by T-PSA-3 [1]: 946.6 pg/mL and 915.9 pg/mL; Production of IFN-γ ([2]; label = peptide pulsed on immunizing DCs, Jurkat A2/K^b cells pulsed with PSA-3A (25 μg/ml)): 6,218.9 pg/ml/10^6 cells; Production of IFN-γ ([2]; label = peptide pulsed on immunizing DCs, Jurkat A2/K^b cells with no peptide): <37.0 pg/ml/10^6 cells; Production of IFN-γ ([2]; label = peptide pulsed on immunizing DCs, T cells restimulated with Jurkat A2/K^b cells pulsed with PSA-3 (25 μg/ml)): 5,094.3 pg/ml/10^6 cells; Production of IFN-γ ([2]; mice immunized with DCs (no peptide), label = peptide pulsed on Jurkat A2/K^b cells): <37.0 pg/ml/10^6 cells; IL-12 PRODUCTION ([3]; APC DC, T cell line T-PSA-3, peptide 25 μg/ml, 10:1, 24 h, IVS-4): 6.0 pg/ml/5 × 10^5 DC; IL-12 PRODUCTION ([3]; APC DC, T cell line T-PSA-3A, peptide 25 μg/ml, 10:1, 24 h, IVS-4): 27.5 pg/ml/5 × 10^5 DC; IL-12 PRODUCTION ([3]; no APC, T cell line T-PSA-3, peptide 25 μg/ml, 24 h): <0.6 pg/ml/5 × 10^5 DC; IL-12 PRODUCTION ([3]; no APC, T cell line T-PSA-3A, peptide 25 μg/ml, 24 h): <0.6 pg/ml/5 × 10^5 DC; Production of IFN-γ by V8T [4]: <13.0 pg/mL; Stability of peptide-HLA-A2 complexes [5]: more stable than PSA-3 complexes
